The text below walks through data of PubChem BioAssay (NCI).

SMILES strings stand for the structures.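 48-hour exposure; five concentrations; linearly interpolated endpoints. GI50 = concentration required for 50% inhibition of growth. TGI denotes the concentration required for complete inhibition of growth.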 Bounds are passed on as bounds.

Test systems include HOP-62 NSCLC; HL-60(TB) leukemia; SK-OV-3 ovarian; OVCAR-3 ovarian; NCI-H522 lung; 786-0 renal; SK-MEL-5 melanoma; MALME-3M melanoma; UACC-62 melanoma; SR leukemia.
Common to all, as to assay: NCI tumour cell line growth inhibition, 48 h

Turning to `N.N.NCCCCCCCCCN.O=C([O-])CC(=O)[O-].O=C([O-])CC(=O)[O-].[Pt+4].[Pt+4]`, the GI50 with HOP-62 NSCLC is over 100 µM; in the assay with HL-60(TB) leukemia it was 13.4 µM; with SK-OV-3 ovarian, over 100 µM; in the assay on OVCAR-3 ovarian it was over 100 µM; in the assay on NCI-H522 lung, 67.5 µM; with 786-0 renal it was 85.8 µM. For the same compound, the GI50 is 28.9 µM in the assay on SK-MEL-5 melanoma, 28.9 µM in the assay with MALME-3M melanoma and 23.1 µM in the assay on UACC-62 melanoma. Also, the TGI in the assay on HOP-62 NSCLC, in the assay on HL-60(TB) leukemia, in the assay with SK-OV-3 ovarian, in the assay with OVCAR-3 ovarian, with NCI-H522 lung and in the assay on 786-0 renal was over 100 µM in each case. In addition, the TGI in the assay on SK-MEL-5 melanoma is 81.7 µM; with MALME-3M melanoma, 73.3 µM; in the assay on UACC-62 melanoma it was over 100 µM.

In the case of `Clc1cc(Cl)cc(Nc2ccc3cc(OCCCN4CCOCC4)ccc3n2)c1`, the GI50 is 2.57 µM in the assay on HL-60(TB) leukemia; 2.62 µM with SK-OV-3 ovarian; 2.36 µM in the assay with OVCAR-3 ovarian; 2.08 µM in the assay on NCI-H522 lung; 1.58 µM with 786-0 renal; 1.71 µM in the assay with SK-MEL-5 melanoma. Besides, the TGI in the assay on HL-60(TB) leukemia worked out at 5.96 µM; in the assay on SK-OV-3 ovarian, 7.24 µM; in the assay with OVCAR-3 ovarian, 6.4 µM; in the assay on NCI-H522 lung, 5.22 µM; with 786-0 renal it was 3.11 µM; in the assay with SK-MEL-5 melanoma, 3.13 µM.

As for `O=C(O)C12CC3(C(=O)O)CC(C(=O)O)(CC(C(=O)O)(C1)C3=O)C2=O`, the TGI in the assay on HOP-62 NSCLC, with SK-OV-3 ovarian, with SR leukemia, with OVCAR-3 ovarian, in the assay on NCI-H522 lung and in the assay with 786-0 renal was over 100 µM in each case. For the same compound, the TGI in the assay with SK-MEL-5 melanoma, in the assay on MALME-3M melanoma and with UACC-62 melanoma was over 100 µM in each case.

Take `Nc1ccc2[nH]cc(CCC(=O)O)c2c1`: the TGI with HOP-62 NSCLC is over 100 µM; with HL-60(TB) leukemia, 76.5 µM; in the assay on SK-OV-3 ovarian, over 100 µM; in the assay on OVCAR-3 ovarian it was over 100 µM; in the assay with NCI-H522 lung it was over 100 µM; in the assay on 786-0 renal, over 100 µM. Moreover, the TGI with SK-MEL-5 melanoma, in the assay with MALME-3M melanoma and in the assay with UACC-62 melanoma was over 100 µM each time.

Regarding `N#CC(C(=O)CCC(=O)Nc1cccc(C(F)(F)F)c1)c1ccc(Cl)cc1` (stereo unspecified), the TGI with HOP-62 NSCLC, in the assay with HL-60(TB) leukemia, in the assay with SK-OV-3 ovarian, in the assay on OVCAR-3 ovarian, in the assay on NCI-H522 lung and with 786-0 renal was over 100 µM each time. In addition, the TGI in the assay with SK-MEL-5 melanoma, in the assay with MALME-3M melanoma and in the assay with UACC-62 melanoma was over 100 µM each time.

In the case of `CC1=C(c2cc(C(=O)Nc3ccc(Cl)cc3)nc(=S)[nH]2)Sc2ccccc2N1`, the TGI in the assay with HOP-62 NSCLC, with HL-60(TB) leukemia, with SK-OV-3 ovarian, in the assay on OVCAR-3 ovarian, in the assay with NCI-H522 lung and in the assay with 786-0 renal was over 100 µM each time. Besides, the TGI in the assay with SK-MEL-5 melanoma, with MALME-3M melanoma and in the assay with UACC-62 melanoma was over 100 µM each time.

Take `CO/N=C(/C)c1cccc(Nc2cc(-c3ccccc3)nc3ccc(OC)cc23)c1`: the GI50 with HOP-62 NSCLC was 2.37 µM; in the assay on SK-OV-3 ovarian, 29.2 µM; with NCI-H522 lung it was 17.8 µM; in the assay with 786-0 renal, 3.18 µM; in the assay with SK-MEL-5 melanoma it was 2.63 µM; with MALME-3M melanoma, 2.45 µM. In the assay on UACC-62 melanoma, the GI50 was 4.33 µM. Besides, the TGI with HOP-62 NSCLC was 6.17 µM; in the assay on SK-OV-3 ovarian, 72 µM; in the assay on NCI-H522 lung it was over 100 µM; with 786-0 renal, 13.3 µM; in the assay with SK-MEL-5 melanoma it was 8.13 µM; in the assay with MALME-3M melanoma, 7.78 µM. Moreover, in the assay on UACC-62 melanoma, the TGI amounted to 17.7 µM.

`Cc1cccc(C(C)C)c1NC(=O)C(=O)C(C(=O)c1ccccc1F)C1OC(=O)c2ccccc21` (stereo unspecified): the TGI with HOP-62 NSCLC is 35.8 µM; in the assay on SK-OV-3 ovarian it was 64.9 µM; in the assay on OVCAR-3 ovarian, 38 µM; with NCI-H522 lung, 33.6 µM; in the assay with 786-0 renal, 36.6 µM; with SK-MEL-5 melanoma, 28.5 µM. In addition, the values for the TGI with MALME-3M melanoma and in the assay on UACC-62 melanoma were 26.9 µM and 22.4 µM, respectively.

Consider `O=c1oc2ccc(Br)cc2c(=O)n1-c1ccc(F)cc1F`, for which the GI50 in the assay with HOP-62 NSCLC is 2.45 µM; with SK-OV-3 ovarian, 0.398 µM; in the assay on SR leukemia, 2.67 µM; with OVCAR-3 ovarian, 2.41 µM; in the assay on NCI-H522 lung it was 2.6 µM; in the assay with 786-0 renal, 3.23 µM. The GI50 was 1.38 µM in the assay on SK-MEL-5 melanoma, 1.59 µM in the assay with MALME-3M melanoma and 1.01 µM in the assay on UACC-62 melanoma. The TGI in the assay on HOP-62 NSCLC is 8.3 µM; in the assay on SK-OV-3 ovarian it was 3.38 µM; in the assay with SR leukemia, over 100 µM; in the assay on OVCAR-3 ovarian, 11.4 µM; with NCI-H522 lung, 14.9 µM; with 786-0 renal it was 11.6 µM. Further, the TGI with SK-MEL-5 melanoma came out at 2.82 µM; in the assay on MALME-3M melanoma it was 5.87 µM; in the assay on UACC-62 melanoma, 4.51 µM.

Take `c1ccc(CSc2nc3ccccc3nc2-c2cccs2)cc1`: the TGI in the assay on HOP-62 NSCLC, with HL-60(TB) leukemia, in the assay on SK-OV-3 ovarian, in the assay on OVCAR-3 ovarian, in the assay on NCI-H522 lung and in the assay with 786-0 renal was over 100 µM throughout. Further, the TGI with SK-MEL-5 melanoma and with MALME-3M melanoma was over 100 µM each time.

Regarding `O=C(O)CN(c1ccccc1)S(=O)(=O)c1ccc([N+](=O)[O-])cc1`, the TGI in the assay with HL-60(TB) leukemia, with SK-OV-3 ovarian, in the assay on OVCAR-3 ovarian, in the assay with NCI-H522 lung, with 786-0 renal and in the assay on SK-MEL-5 melanoma was over 100 µM in each case. The TGI with MALME-3M melanoma and in the assay on UACC-62 melanoma was over 100 µM in each case.

`Cc1cc(C(C)(C)C)cc(Cc2cc(C(C)(C)C)cc(Cc3cc(C(C)(C)C)cc(C)c3O)c2O)c1O`: the TGI in the assay on HOP-62 NSCLC is 28.9 µM; in the assay with HL-60(TB) leukemia, 12.5 µM; in the assay on SK-OV-3 ovarian it was 27.9 µM; with OVCAR-3 ovarian, 16.5 µM; in the assay with NCI-H522 lung it was 13.2 µM; in the assay on 786-0 renal, 18.6 µM. The TGI was found to be 21.6 µM in the assay on SK-MEL-5 melanoma, 22.5 µM in the assay with MALME-3M melanoma and 18.9 µM with UACC-62 melanoma.

For `CCC(=O)Nc1ccc(N=NN(C)C)cc1`, the TGI in the assay on HOP-62 NSCLC, with HL-60(TB) leukemia, in the assay on SK-OV-3 ovarian, in the assay with NCI-H522 lung, in the assay on 786-0 renal and in the assay on SK-MEL-5 melanoma was over 100 µM each time. Moreover, the TGI with MALME-3M melanoma and with UACC-62 melanoma was over 100 µM in each case.

Regarding `COc1cc(C2C(C(=O)Nc3cc(F)c(F)cc3F)=C(C)NC(C)=C2C(=O)Nc2cc(F)c(F)cc2F)ccc1O`, the TGI with HOP-62 NSCLC was 97.9 µM; in the assay with HL-60(TB) leukemia it was 40.7 µM; with OVCAR-3 ovarian it was 38 µM; in the assay with NCI-H522 lung it was 36.3 µM; in the assay with 786-0 renal it was over 100 µM; with SK-MEL-5 melanoma it was 53.9 µM. The compound also showed a TGI with MALME-3M melanoma of 74.5 µM.
